Patent US11693163B2, “Optical filter and imaging device” (AGC Inc., priority 2015, dated 2023)

Assays:
[1] = Absorption characteristic of NIR dye in dichloromethane; assay type: physicochemical
From the text: The obtained NIR dyes were each dissolved in dichloromethane, and an ultraviolet-visible spectrophotometer (manufactured by Hitachi High Technologies Co., Ltd., U-4100 type) was used to measure each spectral transmittance curve, from which a maximum absorption wavelength λmax, a wavelength λ80 at which the transmittance becomes 80% on a shorter wavelength side than the maximum absorption wavelength with the transmittance at the maximum absorption wavelength set to 10%, a difference between the maximum absorption wavelength λmax and the wavelength λ80 (λmax−λ80), a maximum absorption constant εA in light of a wavelength range of 430 to 550 nm, a maximum absorption constant εB in light of a wavelength range of 670 to 730 nm, and a ratio of these (εB/εA) were calculated. Note that the U-4100 type was used for the measurement of spectral transmittance curves in each of the following examples.

[2] = Solubility of NIR dye to resin solution; assay type: physicochemical; conditions: stirred two hours; for Solubility evaluation, Polyimide resin: 12.5 mass % C3450 in cyclohexanone:NMP=1:1, 50° C.; for Solubility evaluation, Polyester resin: 12.5 mass % OKP850 in cyclohexanone:NMP=1:1, 50° C.; for Solubility evaluation, Polyethersulfone resin: 12.5 mass % PES4800 in cyclohexanone:NMP=1:1, 50° C.
Protocol: Results are illustrated in Table 8 together with the kinds of the used dyes. Note that the temperature of the resin solution in the solubility test was set to 50° C., the NIR dye was put into the resin solution, the resultant resin solution was stirred for two hours, and the presence/absence of occurrence of the dissolution was observed visually. Evaluation criteria of the solubility are as follows.
A: Solubility of 9 mass % or more
B: Solubility of 7 mass % or more and less than 9 mass %
C: Solubility of 5 mass % or more and less than 7 mass %
D: Solubility of 3 mass % or more and less than 5 mass %
E: Solubility of 1 mass % or more and less than 3 mass %
F: Solubility of less than 1 mass %

Structure (SMILES)	εA (maximum absorption constant, 430 to 550 nm) [1]	εB (maximum absorption constant, 670 to 730 nm) [1]	εB/εA [1]	λ80 (wavelength of 80% transmittance, shorter side of λmax, transmittance at λmax set to 10%) [1] [nm]	λmax (maximum absorption wavelength) [1] [nm]	λmax-λ80 [1] [nm]	Solubility evaluation, Polyimide resin [2]	Solubility evaluation, Polyester resin [2]	Solubility evaluation, Polyethersulfone resin [2]
CC(C)OC(=O)Nc1cc2c(cc1C1=C([O-])C(=c3cc4c(cc3NC(=O)OC(C)C)=[N+](C(C)C)C(C)C4(C)C)C1=O)C(C)(C)C(C)N2C(C)C (stereo not drawn) [A1-8]	0.017	1	60.2	647	697	50	A (9 mass % or more)	A (9 mass % or more)	A (9 mass % or more)
CCCOC(=O)Nc1cc2c(cc1C1=C([O-])C(=c3cc4c(cc3NC(=O)OCCC)=[N+](C(C)C)C(C)C4(C)C)C1=O)C(C)(C)C(C)N2C(C)C (stereo not drawn) [A1-6]	0.016	1	63.9	647	697	50	A (9 mass % or more)	A (9 mass % or more)	A (9 mass % or more)
CCCCCOC(=O)Nc1cc2c(cc1C1=C([O-])C(=c3cc4c(cc3NC(=O)OCCCCC)=[N+](C(C)(CC)CC)C(C)C4(C)C)C1=O)C(C)(C)C(C)N2C(C)(CC)CC (stereo not drawn) [A1-13]	0.019	1	51.8	659	707	48	A (9 mass % or more)	A (9 mass % or more)	A (9 mass % or more)
CCCCCOC(=O)Nc1cc2c(cc1C1=C([O-])C(=c3cc4c(cc3NC(=O)OCCCCC)=[N+](C(C)C)C(C)C4(C)C)C1=O)C(C)(C)C(C)N2C(C)C (stereo not drawn) [A1-7]	0.016	1	61.8	647	697	50	A (9 mass % or more)	A (9 mass % or more)	A (9 mass % or more)
CCCCCOC(=O)Nc1cc2c(cc1C1=C([O-])C(=c3cc4c(cc3NC(=O)OCCCCC)=[N+](C(C)(C)CC)C(C)C4(C)C)C1=O)C(C)(C)C(C)N2C(C)(C)CC (stereo not drawn) [A1-11]	0.016	1	61.3	658	705	47	A (9 mass % or more)	A (9 mass % or more)	A (9 mass % or more)
CCCCCCCOc1ccc(C(=O)Nc2cc3c(cc2C2=C([O-])C(=c4cc5c(cc4NC(=O)c4ccc(OCCCCCCC)cc4)=[N+](C(C)C)C(C)C5(C)C)C2=O)C(C)(C)C(C)N3C(C)C)cc1 (stereo not drawn) [A4, reference compound]	0.029	1	34.7	659	710	51	–	–	–
CCCc1ccc(OC(=O)Nc2cc3c(cc2C2=C([O-])C(=c4cc5c(cc4NC(=O)Oc4ccc(CCC)cc4)=[N+](C)C(C)C5(C)C)C2=O)C(C)(C)C(C)N3C)cc1 (stereo not drawn) [A1-5]	0.016	1	63.9	636	693	57	F (Less than 1 mass %)	F (Less than 1 mass %)	F (Less than 1 mass %)
CCCOC(=O)Nc1cc2c(cc1C1=C([O-])C(=c3cc4c(cc3NC(=O)OCCC)=[N+](C(C)(CC)CC)C(C)C4(C)C)C1=O)C(C)(C)C(C)N2C(C)(CC)CC (stereo not drawn) [A1-12]	0.017	1	59.7	656	707	51	A (9 mass % or more)	A (9 mass % or more)	A (9 mass % or more)
CCCCC(CC)COC(=O)Nc1cc2c(cc1C1=C([O-])C(=c3cc4c(cc3NC(=O)OCC(CC)CCCC)=[N+](C)C(C)C4(C)C)C1=O)C(C)(C)C(C)N2C (stereo not drawn) [A1-4]	0.019	1	53.5	632	690	58	A (9 mass % or more)	A (9 mass % or more)	A (9 mass % or more)
CCCCCOC(=O)Nc1cc2c(cc1C1=C([O-])C(=c3cc4c(cc3NC(=O)OCCCCC)=[N+](C)C(C)C4(C)C)C1=O)C(C)(C)C(C)N2C (stereo not drawn) [A1-3]	0.013	1	77.5	633	691	58	A (9 mass % or more)	A (9 mass % or more)	A (9 mass % or more)
CCCOC(=O)Nc1cc2c(cc1C1=C([O-])C(=c3cc4c(cc3NC(=O)OCCC)=[N+](C(C)(C)CC)C(C)C4(C)C)C1=O)C(C)(C)C(C)N2C(C)(C)CC (stereo not drawn) [A1-10]	0.018	1	55.5	658	705	47	A (9 mass % or more)	A (9 mass % or more)	A (9 mass % or more)
CCCOC(=O)Nc1cc2c(cc1C1=C([O-])C(=c3cc4c(cc3NC(=O)OCCC)=[N+](C)C(C)C4(C)C)C1=O)C(C)(C)C(C)N2C (stereo not drawn) [A1-2]	0.017	1	59.0	633	691	58	A (9 mass % or more)	A (9 mass % or more)	A (9 mass % or more)
COC(=O)Nc1cc2c(cc1C1=C([O-])C(=c3cc4c(cc3NC(=O)OC)=[N+](C)C(C)C4(C)C)C1=O)C(C)(C)C(C)N2C (stereo not drawn) [A1-1]	0.014	1	71.1	632	691	59	E (1 mass % or more and less than 3 mass %)	D (3 mass % or more and less than 5 mass %)	E (1 mass % or more and less than 3 mass %)
CCCCC(CC)C(=O)Nc1cc2c(cc1C1=C([O-])C(=c3cc4c(cc3NC(=O)C(CC)CCCC)=[N+](C(C)C)C(C)C4(C)C)C1=O)C(C)(C)C(C)N2C(C)C (stereo not drawn) [A3, reference compound]	0.020	1	49.1	656	706	50	–	–	–
CCCc1ccc(OC(=O)Nc2cc3c(cc2C2=C([O-])C(=c4cc5c(cc4NC(=O)Oc4ccc(CCC)cc4)=[N+](C(C)C)C(C)C5(C)C)C2=O)C(C)(C)C(C)N3C(C)C)cc1 (stereo not drawn) [A1-9]	0.013	1	75.7	651	700	49	E (1 mass % or more and less than 3 mass %)	E (1 mass % or more and less than 3 mass %)	E (1 mass % or more and less than 3 mass %)
